System: women with endometriosis
Assay: Six Phase 2 studies of elagolix for endometriosis associated pain
Format: in vivo, human
Method: Efficacy was assessed for dysmenorrhea (DYS), nonmenstrual pelvic pain (NMPP), dyspareunia, and general pelvic pain with a range of instruments. Additional efficacy assessments included quality of life and the use of analgesics for control of endometriosis pain. Across these Phase 2 studies, the enrollment criteria were similar and were intended to select premenopausal women aged 18 to 49 years of age with endometriosis confirmed by visual inspection (laparoscopy or laparotomy within 5 to 8 years of screening) who experienced moderate to severe endometriosis-associated pain. Women were included if they had regular menstrual cycles and no significant uterine fibroids or pelvic lesions. Total daily doses of elagolix ranging from 75 to 250 mg were evaluated across a range of pain instruments measuring […], or general pelvic pain (including patient global impression of change), during 12 or 24 weeks of treatment. […] Overall, 475 women have received elagolix for at least 12 weeks and 278 women for a period of at least 24 weeks. The majority of women were Caucasian (78.9% to 100%), while approximately 7% were black and approximately 4.5% were Hispanic. The mean age across these six Phase 2 studies was 31 to 33 years (range 18 to 48 years) and mean body mass index (BMI) of 23 to 28 kg/m. […] In addition, the majority were receiving analgesic medications (nonsteroidal anti-inflammatory drugs, opioids, and/or other) prior to study enrollment

For COc1cccc(-c2c(C)n(Cc3c(F)cccc3C(F)(F)F)c(=O)n(C[C@H](NCCCC(=O)O)c3ccccc3)c2=O)c1F [Elagolix, 4-((R)-2-[5-(2-fluoro-3-methoxy-phenyl)-3-(2-fluoro-6-trifluoromethyl-benzyl)-4-methyl-2,6-dioxo-3,6-dihydro-2H-pyrimidin-1-yl]-1-phenyl-ethylamino)-butyric acid], the Safety and tolerability (all daily doses (100 to 250 mg)) was “safe and well tolerated”, the “Incidence of AEs that led to discontinuations” value (completed Phase 2 studies) was 4.8% and the “Effect on DYS and NMPP versus DMPA-SC” value (daily dose of 150 mg) was “comparable effect to subcutaneous depot medroxyprogesterone acetate (DMPA-SC)”. The Effect versus leuprorelin (daily doses of 150 mg and 250 mg) was “less effect compared with leuprorelin”, the “Reduction in endometriosis-associated pain” value (daily doses of 100 to 250 mg, 12 or 24 weeks) was “clinically meaningful reductions in endometriosis-associated pain” and the “Days of bleeding per month (eDiary)” value (versus placebo) was “fewer days of bleeding per month compared with patients who received placebo”.
